In ChEMBL document CHEMBL1201862, “PubChem BioAssay data set” (2004):
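Results reflect a 48-hour exposure of cells in 96-well plates to compound at five concentrations. Abbreviation: GI50, concentration required for 50% inhibition of growth.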 The source made the active and inactive calls. Rule as the data show it: active = GI50 up to about 1.1 µM and inactive = higher.

Key:
Assay in all cases: inhibition of tumour cell growth, NCI panel, 48 h
Malme-3M = test system: Malme-3M
HL-60 = test system: HL-60
RPMI-8226 = test system: RPMI-8226
NCI-H522 = test system: NCI-H522
IGROV-1 = test system: IGROV-1
T47D = test system: T47D
HOP-62 = test system: HOP-62
HOP-92 = test system: HOP-92
NCI-H460 = test system: NCI-H460
SNB-19 = test system: SNB-19
SK-OV-3 = test system: SK-OV-3
MDA-N = test system: MDA-N
U-251 = test system: U-251
A549 = test system: A549
CAKI-1 = test system: CAKI-1
NCI-H226 = test system: NCI-H226
LOX IMVI = test system: LOX IMVI
KM12 = test system: KM12
MCF7 = test system: MCF7
RXF 393 = test system: RXF 393

Measured: GI50

CC1Cn2c(nc3ccccc32)NC1=O (stereo not given)
inactive: Malme-3M 58.2 µM | HL-60 > 100 µM | RPMI-8226 > 100 µM | NCI-H522 > 100 µM | IGROV-1 > 100 µM | T47D > 100 µM | HOP-62 > 100 µM | HOP-92 > 100 µM | NCI-H460 > 100 µM | SNB-19 > 100 µM | SK-OV-3 > 100 µM | MDA-N > 100 µM | U-251 > 100 µM | A549 > 100 µM | CAKI-1 > 100 µM | NCI-H226 > 100 µM | LOX IMVI > 100 µM | KM12 > 100 µM | MCF7 > 100 µM | RXF 393 > 100 µM

O=C1NC(=O)C(c2c[nH]c3cc(Br)ccc23)=C1c1cnc[nH]1
inactive: Malme-3M > 100 µM | HL-60 20.4 µM | RPMI-8226 30.8 µM | NCI-H522 31.8 µM | IGROV-1 28.4 µM | T47D 48.8 µM | HOP-62 19.1 µM | HOP-92 > 100 µM | NCI-H460 24 µM | SNB-19 > 100 µM | SK-OV-3 13.1 µM | MDA-N 35.5 µM | U-251 32.5 µM | A549 53.1 µM | CAKI-1 13.2 µM | NCI-H226 1.47 µM | LOX IMVI 19.5 µM | KM12 21.1 µM | MCF7 21.7 µM | RXF 393 39 µM

CN1C[C@@H]2CCCN2P1Oc1cccc2cccnc12 (stereo not given in full)
inactive: Malme-3M 25.8 µM | HL-60 16.1 µM | RPMI-8226 13.2 µM | NCI-H522 18.1 µM | IGROV-1 32.9 µM | T47D 9.77 µM | HOP-62 52.1 µM | HOP-92 > 100 µM | NCI-H460 35.4 µM | SNB-19 > 100 µM | SK-OV-3 > 100 µM | MDA-N 55.2 µM | U-251 35.2 µM | A549 44.5 µM | CAKI-1 35.3 µM | NCI-H226 80.9 µM | LOX IMVI 97.5 µM | KM12 40.2 µM | MCF7 12 µM | RXF 393 > 100 µM

Cc1nnc(-n2c(O)cc(=O)n(-c3ccccc3)c2=S)nc1/C=C/c1ccc(N(C)C)cc1
inactive: Malme-3M 2.69 µM | HL-60 2.7 µM | RPMI-8226 11.2 µM | NCI-H522 1.32 µM | IGROV-1 5.98 µM | T47D 6.62 µM | HOP-62 5.86 µM | HOP-92 21.5 µM | NCI-H460 8.79 µM | SNB-19 20.4 µM | SK-OV-3 11.7 µM | MDA-N 9.25 µM | U-251 10.1 µM | A549 8.63 µM | CAKI-1 5.7 µM | NCI-H226 32.3 µM | LOX IMVI 4.32 µM | KM12 7.05 µM | MCF7 3.42 µM | RXF 393 17.5 µM

Cc1ccc2c(c1)CN(C(=O)CCC(=O)OCc1ccccc1)c1ccc(C)cc1CN2C(=O)CCC(=O)OCc1ccccc1
inactive: Malme-3M > 100 µM | HL-60 > 100 µM | RPMI-8226 > 100 µM | NCI-H522 > 100 µM | IGROV-1 > 100 µM | T47D > 100 µM | HOP-62 > 78 µM | HOP-92 82.2 µM | NCI-H460 > 100 µM | SNB-19 > 100 µM | SK-OV-3 > 100 µM | MDA-N > 100 µM | U-251 > 100 µM | A549 > 100 µM | CAKI-1 > 100 µM | NCI-H226 > 100 µM | LOX IMVI > 100 µM | KM12 99.3 µM | MCF7 9.25 µM | RXF 393 > 100 µM
